{"source": "patent US12351877B2", "about": "“Systems and methods for determining a treatment course of action” (Arizona Board of Regents on Behalf of the University of …, priority 2018, dated 2025)", "key": {"[1]": {"test_system": "MCF7 cells", "experiment": "Live-cell TIRFM of SCABs before and after inhibiting contractility", "type": "cell-based, human", "settings": "25 uM ROCK inhibitor", "excerpt": "(§1) The relationship between cortical contractility and membrane motility dynamics was further examined. Using live-cell Total Internal Reflection Fluorescence Microscopy (TIRFM), SCABs at the leading edge of MCF7 and T47D cells were imaged before and after inhibiting contractility using the ROCK inhibitor, Y-27632; the actin cytoskeleton was labeled with iRFP-Lifeact, and SCABs with MLC-mRuby2. […] In addition, the existence of SCABs, their contractile nature, and their suppressive effects were validated in two types of epithelial cells: MDCK canine kidney epithelial cells, and Caco-2 human intestinal epithelial cells (FIGS. 3c and 3d). […] ER is potentially enriching for SCABs by inducing the expression of actin regulators that promote SCAB formation."}, "[2]": {"test_system": "T47D cells", "experiment": "Live-cell TIRFM of SCABs before and after inhibiting contractility", "type": "cell-based, human", "settings": "25 uM ROCK inhibitor", "excerpt": "as §1"}, "[3]": {"test_system": "Caco-2 human intestinal epithelial cells", "experiment": "Leading edge kymography before and after dissolving SCABs", "type": "cell-based", "settings": "25 μM ROCK inhibitor, dissolution of SCABs", "excerpt": "as §1"}, "[4]": {"test_system": "MDCK canine kidney epithelial cells", "experiment": "Leading edge kymography before and after dissolving SCABs", "type": "cell-based", "settings": "25 μM ROCK inhibitor, dissolution of SCABs", "excerpt": "as §1"}}, "data": [{"smiles": "C[C@@H](N)[C@H]1CC[C@H](C(=O)Nc2ccncc2)CC1", "note": "[Y-27632]", "values": [{"measurement": "SCABs", "setting": "[1]", "result": "dissolution of SCABs"}, {"measurement": "MLC at the leading edge", "setting": "[1]; MLC-mRuby2", "result": "loss of MLC"}, {"measurement": "protrusive activity", "setting": "[1]; iRFP-Lifeact", "result": "rapid increase"}, {"measurement": "SCABs", "setting": "[2]", "result": "dissolution of SCABs"}, {"measurement": "MLC at the leading edge", "setting": "[2]; MLC-mRuby2", "result": "loss of MLC"}, {"measurement": "protrusive activity", "setting": "[2]; iRFP-Lifeact", "result": "rapid increase"}, {"measurement": "motility dynamics of the leading edge", "setting": "[3]", "result": "dramatically increased"}, {"measurement": "motility dynamics of the leading edge", "setting": "[3]; listed as ROCK inhibitor", "result": "increased"}, {"measurement": "motility dynamics of the leading edge", "setting": "[4]", "result": "dramatically increased"}, {"measurement": "motility dynamics of the leading edge", "setting": "[4]; listed as ROCK inhibitor", "result": "increased"}]}]}
